We go through 29 compounds from US6407103B2, “Indeno [1,2-c] pyrazol-4-ones and their uses” (Bristol-Myers Squibb Pharma Company, priority 1998, dated 2002).

Structures are written as SMILES. Structures can show the parent of a compound that is named as a salt.

Broadly, the melting point is the temperature, or range, at which the solid turns liquid. On to `CN1CCN(c2ccc(-c3[nH]nc4c3C(=O)c3c(NC(=O)NN5CCOCC5)cccc3-4)cc2)CC1` (as salt: TFA) [Example CCXVIII, 3-(4-(4-methylpiperazino)phenyl)-5-(morpholinocarbamoylamino)indeno[1,2-c]pyrazol-4-one], for which the melting point is 245 °C. The compound `CC(C)N1CCN(c2ccc(-c3[nH]nc4c3C(=O)c3c(NC(=O)NN5CCOCC5)cccc3-4)cc2)CC1` (as salt: TFA) [Example CCXX, 3-(4-(4-isopropylpiperazino)phenyl)-5-(morpholinocarbamoylamino)indeno[1,2-c]pyrazol-4-one] had a melting point of 253 °C.

`CN(C)NC(=O)Nc1cccc2c1C(=O)c1c-2n[nH]c1-c1ccc(N2CCNCC2)cc1` (as salt: TFA) [Example CCXXI, 3-(4-piperazinophenyl)-5-((N,N-dimethylamino)carbamoylamino)indeno[1,2-c]pyrazol-4-one] came in with a melting point of 238 °C. The value for `CN1CCN(c2ccc(-c3[nH]nc4c3C(=O)c3c(NC(=O)NN(C)C)cccc3-4)cc2)CC1` (as salt: TFA) [Example CCXXII, 3-(4-(4-methylpiperazino)phenyl)-5-((N,N-dimethylamino)carbamoylamino)indeno[1,2-c]pyrazol-4-one] was 192 °C. Consider `CN1CCN(NC(=O)Nc2cccc3c2C(=O)c2c-3n[nH]c2-c2ccc(N3CCNCC3)cc2)CC1` (as salt: TFA) [Example CCXXIII, 3-(4-piperazinophenyl)-5-((4-methylpiperazino)carbamoylamino)indeno[1,2-c]pyrazol-4-one], for which the melting point was 254 °C.

As for `CN1CCN(NC(=O)Nc2cccc3c2C(=O)c2c-3n[nH]c2-c2ccc(N3CCN(C)CC3)cc2)CC1` (as salt: TFA) [Example CCXXIV, 3-(4-(4-methylpiperazino)phenyl)-5-((4-methylpiperazino)carbamoylamino)indeno[1,2-c]pyrazol-4-one], the melting point turned out to be 293 °C. Turning to `CC(C)N1CCN(c2ccc(-c3[nH]nc4c3C(=O)c3c(NC(=O)NN5CCN(C)CC5)cccc3-4)cc2)CC1` (as salt: TFA) [Example CCXXVI, 3-(4-(4-isopropylpiperazino)phenyl)-5-((4-methylpiperazino)carbamoylamino)indeno[1,2-c]pyrazol-4-one], the melting point was 272 °C. In the case of `CC1CCCC(C)N1NC(=O)Nc1cccc2c1C(=O)c1c-2n[nH]c1-c1ccc(N2CCNCC2)cc1` (centres unmarked) (as salt: TFA) [Example CCXXVII, 3-(4-piperazinophenyl)-5-((2,6-dimethylpiperidino)carbamoylamino)indeno[1,2-c]pyrazol-4-one], the melting point was 270 °C. Regarding `O=C(Nc1cccc2c1C(=O)c1c-2n[nH]c1-c1ccc(N2CCNCC2)cc1)NN1CCN(CCO)CC1` (as salt: TFA) [Example CCXXVIII, 3-(4-piperazinophenyl)-5-((4-(2-hydroxyethyl)piperazino)carbamoylamino)indeno[1,2-c]pyrazol-4-one], the melting point was 279 °C. `COC(C)(C)[C@H]1CCCN1NC(=O)Nc1cccc2c1C(=O)c1c-2n[nH]c1-c1ccc(N2CCNCC2)cc1` (as salt: TFA) [Example CCXXXI, 3-(4-piperazinophenyl)-5-((2(R)-(1-methoxy-1-methylethyl)pyrrolidino)carbamoylamino)indeno[1,2-c]pyrazol-4-one] returned a melting point of 221 °C. `COC(C)(C)[C@@H]1CCCN1NC(=O)Nc1cccc2c1C(=O)c1c-2n[nH]c1-c1ccc(N2CCNCC2)cc1` (as salt: TFA) [Example CCXXXII, 3-(4-piperazinophenyl)-5-((2(S)-(1-methoxy-1-methylethyl)pyrrolidino)carbamoylamino)indeno[1,2-c]pyrazol-4-one] showed a melting point of 218 °C. `O=C(Nc1cccc2c1C(=O)c1c-2n[nH]c1-c1ccc(N2CCNCC2)cc1)NN1CCC[C@@H]1CO` (as salt: TFA) [Example CCXXXIII, 3-(4-piperazinophenyl)-5-((2(R)-(hydroxymethyl)pyrrolidino)carbamoylamino)indeno[1,2-c]pyrazol-4-one]: the melting point turned out to be 193 °C. Under `O=C(Nc1cccc2c1C(=O)c1c-2n[nH]c1-c1ccc(N2CCNCC2)cc1)NN1CCC[C@H]1CO` (as salt: TFA) [Example CCXXXIV, 3-(4-piperazinophenyl)-5-((2(S)-(hydroxymethyl)pyrrolidino)carbamoylamino)indeno[1,2-c]pyrazol-4-one] stands 190 °C. The value for `O=C(Nc1cccc2c1C(=O)c1c-2n[nH]c1-c1ccc(N2CCNCC2)cc1)NN1CCC[C@@H]1COCc1ccccc1` (as salt: TFA) [Example CCXXXV, 3-(4-piperazinophenyl)-5-((2(R)-(benzyloxymethyl)pyrrolidino)carbamoylamino)indeno[1,2-c]pyrazol-4-one] was 207 °C; that for `CC1CN(c2ccc(-c3[nH]nc4c3C(=O)c3c(NC(=O)NN5CCOCC5)cccc3-4)cc2)CCN1` (centres unmarked) (as salt: TFA) [Example CCXXXVII, 3-(4-(3-methylpiperazino)phenyl)-5-(morpholinocarbamoylamino)indeno[1,2-c]pyrazol-4-one] was 230 °C. With `C[C@@H]1CN(c2ccc(-c3[nH]nc4c3C(=O)c3c(NC(=O)NN5CCOCC5)cccc3-4)cc2)C[C@H](C)N1` (as salt: TFA) [Example CCXXXVIII, 3-(4-(cis-3,5-dimethylpiperazino)phenyl)-5-(morpholinocarbamoylamino)indeno[1,2-c]pyrazol-4-one], the melting point came to 237 °C.

In the case of `CN1CCN(C(=O)c2ccc(-c3[nH]nc4c3C(=O)c3c(NC(=O)NN5CCOCC5)cccc3-4)s2)CC1` (as salt: TFA) [Example CL, 3-(5-(4-methylpiperazinocarbonyl)-2-thienyl)-5-(morpholinocarbamoylamino)indeno[1,2-c]pyrazol-4-one], the melting point is 186 °C.

In the case of `CCN1CCN(C(=O)c2ccc(-c3[nH]nc4c3C(=O)c3c(NC(=O)NN5CCOCC5)cccc3-4)s2)CC1` (as salt: TFA) [Example CLI, 3-(5-(4-ethylpiperazinocarbonyl)-2-thienyl)-5-(morpholinocarbamoylamino)indeno[1,2-c]pyrazol-4-one], the melting point is 186 °C. The value for `O=C(Nc1cccc2c1C(=O)c1c-2n[nH]c1-c1ccc(C(=O)N2CCN(CCO)CC2)s1)NN1CCOCC1` (as salt: TFA) [Example CLII, 3-(5-(4-(2-hydroxyethyl)piperazinocarbonyl)-2-thienyl)-5-(morpholinocarbamoylamino)indeno[1,2-c]pyrazol-4-one] was 186 °C; that for `O=C(Nc1cccc2c1C(=O)c1c-2n[nH]c1-c1ccc(C(=O)N2CCN(CC3CC3)CC2)s1)NN1CCOCC1` (as salt: TFA) [Example CLIII, 3-(5-(4-(cyclopropylmethyl)piperazinocarbonyl)-2-thienyl)-5-(morpholinocarbamoylamino)indeno[1,2-c]pyrazol-4-one] was 211 °C; that for `CC(C)(C)OC(=O)N1CCN(C(=O)c2ccc(-c3[nH]nc4c3C(=O)c3c(NC(=O)NN5CCOCC5)cccc3-4)s2)CC1` (as salt: TFA) [Example CLIV, 3-(5-(4-(t-butoxycarbonyl)piperazinocarbonyl)-2-thienyl)-5-(morpholinocarbamoylamino)indeno[1,2-c]pyrazol-4-one] was 225 °C. Compound `O=C(Nc1cccc2c1C(=O)c1c-2n[nH]c1-c1ccc(C(=O)N2CCC(N3CCCC3)CC2)s1)NN1CCOCC1` (as salt: TFA) [Example CLIX, 3-(5-(4-pyrrolidinopiperidinocarbonyl)-2-thienyl)-5-(morpholinocarbamoylamino)indeno[1,2-c]pyrazol-4-one] had a melting point of 228 °C.

The compound `O=C(Nc1cccc2c1C(=O)c1c-2n[nH]c1-c1ccc(C(=O)N2CCN(c3ccccn3)CC2)s1)NN1CCOCC1` (as salt: TFA) [Example CLV, 3-(5-(4-(2-pyridyl)piperazinocarbonyl)-2-thienyl)-5-(morpholinocarbamoylamino)indeno[1,2-c]pyrazol-4-one] came in with a melting point of 202 °C. The value for `O=C(Nc1cccc2c1C(=O)c1c-2n[nH]c1-c1ccc(C(=O)[C@]23CN[C@H](CN2)C3)s1)NN1CCOCC1` (as salt: TFA) [Example CLVI, 3-(5-(((1S,4S)-(+)-2,5-diazabicyclo[2.2.1]heptyl)carbonyl)-2-thienyl)-5-(morpholinocarbamoylamino)indeno [1,2-c]pyrazol-4-one] was greater than 300 °C; that for `CN1C[C@@H]2C[C@@]1(C(=O)c1ccc(-c3[nH]nc4c3C(=O)c3c(NC(=O)NN5CCOCC5)cccc3-4)s1)CN2` (as salt: TFA) [Example CLVII, 3-(5-(((1S,4S)-(+)-2-methyl-2,5-diazabicyclo[2.2.1]heptyl)carbonyl)-2-thienyl)-5-(morpholinocarbamoylamino)indeno[1,2-c]pyrazol-4-one] was 244 °C. As for `CN(C)C1CCN(C(=O)c2ccc(-c3[nH]nc4c3C(=O)c3c(NC(=O)NN5CCOCC5)cccc3-4)s2)CC1` (as salt: TFA) [Example CLVIII, 3-(5-(4-(N,N-dimethylamino)piperidinocarbonyl)-2-thienyl)-5-(morpholinocarbamoylamino)indeno[1,2-c]pyrazol-4-one], the melting point is 185 °C.

`O=C(Nc1cccc2c1C(=O)c1c-2n[nH]c1-c1ccc(C(=O)NC2CCCCC2)s1)NN1CCOCC1` (as salt: TFA) [Example CLXI, 3-(5-cyclohexylaminocarbonyl-2-thienyl)-5-(morpholinocarbamoylamino)indeno[1,2-c]pyrazol-4-one] had a melting point of 264 °C.

On to `O=C(Nc1cccc2c1C(=O)c1c-2n[nH]c1-c1ccc(C(=O)NC2CCNCC2)s1)NN1CCOCC1` (as salt: TFA) [Example CLXII, 3-(5-(4-piperidylaminocarbonyl)-2-thienyl)-5-(morpholinocarbamoylamino)indeno[1,2-c]pyrazol-4-one], for which the melting point worked out at 224 °C. As to `CN(C)C1CCCN(C(=O)c2ccc(-c3[nH]nc4c3C(=O)c3c(NC(=O)NN5CCOCC5)cccc3-4)s2)C1` (centres unmarked) (as salt: TFA) [Example CLXV, 3-(5-(3-(N,N-dimethylamino)piperidinocarbonyl)-2-thienyl)-5-(morpholinocarbamoylamino)indeno[1,2-c]pyrazol-4-one], the melting point is greater than 300 °C.
